# Test results: patent US7196063B1, “Peptides and pharmaceutical compositions comprising same” (NST NeuroSurvival Technologies Ltd., priority 1999, dated 2007)
# Several values for one entry are separate records, joined by “and”; a condition that tells them apart may be missing. Equal values may be shown once. Entries after “also recorded” stand apart in the source; their conditions may differ. Read-outs that look alike come from different tables or passages of the source.
# Experiments:
# activated platelets = details: 2 μM
# Description: Exposure of PS on the outer leaflet of platelets upon their activation is essential for efficient activation of coagulation factors. […] Fresh platelets were received from the Blood Bank in Beilinson Hospital, Israel. The platelets were centrifuged (10 minutes, 2700×g), washed and re-suspended in platelets buffer (137 mM NaCl, 2 mM MgCl2, 0.5 mM NaPi, 5 mM glucose and 20 mM Hepes pH 7.4). 100 μl of platelets were diluted 10 fold and activated for 10 minutes with 2 μM of the calcium ionophore A23187 in the presence of 5 mM of CaCl2. […] The platelets were then washed with platelets buffer and incubated with 5 μg/ml of streptavidin conjugated to fluorescein (FITC). Incubation was for 15 minutes at room temperature, followed by a wash and suspention in platelets buffer. The labeled platelets were subjected to a FACS analysis as described above.
# apoptotic HeLa cells [1] = test: Binding to single apoptotic HeLa cells, fluorescent microscopy; assay type: cell-based
# Description: Chamber slides were pre-coated with 0.1% gelatin (G-1393 Sigma). Cells were seeded at a density of 8×10^4 cells/chamber, in a volume of 300 μl of culture medium. Apoptosis was induced by treatment with dopamine (RBI, MA, USA). Following 24 hours of incubation, the medium was replaced by a low serum-containing medium (2% FCS), with 500 μM of dopamine, for 18 hours. Non-treated cells that served as control, were kept in the growing medium without dopamine.
# For evaluation of apoptosis, cells were stained with 1 mg/ml of Hoechst 33342 dye (Molecular probes). Twenty minutes later, cells were visualized under UV light microscopy and the relative number of apoptotic cells with condensed or fragmented chromatin was then evaluated and compared with non-apoptotic cells, showing a pale and diffuse staining. Photomicrographs were taken for documentation, but are not shown here. For staining with NST500 compounds, the tested cultures were grown as specified above and washed twice with TBS (Tris Buffered Saline; 10 mM Tris PH 8.0; 150 mM NaCl). […]
# As a positive control, binding of Annexin V was performed using commercial kit (Genzyme, Mass.). Binding was evaluated with a fluorescent microscope (IX70; Olympus), using an NIBA filter (Narrow Interference Blue A from Olympus) and a ×400 magnification. […]
# [2] = system: Russell Viper Venom (RVV)-mediated clotting; test: RVV coagulation test in normal plasma; assay type: biochemical
# Description: Reactions were started by mixing 100 μl of RVV reagent, and 100 μl of quality control plasma collected from normal individuals (84670-11, Instrumentation Laboratory, Italy). Clotting time was detected by visual inspection following mixing the reaction ingredients in a test tube, until the suspension could no longer be aspirated with a pastuer pipette. Clotting time was measured by two separate researchers.
# 100 μl of LA screen was then added and clotting time was detected as described.
# The control clotting time, when no compound was added to normal plasma was 40 seconds.
# cardiolipin = system: cardiolipin
# Source text: The antiphospholipid antibody syndrom (APS) is a thrombophilic condition, characterized by a panel of antibodies that recognize anionic phospholipid-protein cofactor complexes. The antiphospholipid antibodies lupus anticoagulant and anticardiolipin, (present in high concentrations in SLE patients), are associated with several medical disorders including artherial and venous thrombosis, and recurrent pregnancy loss (Rand J H et al., 1998, Blood. 92, 1652–1660). […] Noncellular negatively charged phospholipid coated surface (cardiolipin) were chosen as a target for binding.
# CL, (Diphosphatidylglycerol, c-1649, Sigma), prepared at 50 μg/ml in ethanol, was added to a 96 well plate (100 μl/well) using Immunolon 4 plates (Dynatech, Chantilly, Va.) and incubated for 16–20 hr for evaporation of ethanol. As control, wells were coated with ethanol only. The coated plates were washed 3 times with 100 μl of blocking buffer (PBS containing 0.3% gelatin (Sigma) and 1 mM EDTA) to block non specific binding. A 5 min incubation time was used between each wash. Normal plasma (Ilex, Italy, 84670-11) and plasma derived from SLE patients (either from Gradipore, Australia, LAHP-1, or from Biopool, Ventura, Calif.) were prepared according to the producer's instruction. The plasma was diluted 1/10 in the blocking buffer and was added to the CL and ethanol coated wells. […] Following 3 hr incubation, the plates were washed twice with PBS/BSA buffer (0.4% bovine serum albumine (BSA) in PBS). For detection of anti cardiolipin binding property of the tested plasma, the plates were incubated with a 1/10000 dilution of Peroxidase-conjugated affinity purified Goat anti-human IgG (Jackson Immunoresearch lab.) in PBS/BSA buffer for 1 hour. The plates were then washed 3 times with PBS/BSA buffer, and color reaction was developed by incubation with 100 ul of 0-phenylenedi-amine (OPD) dihydrochloride (Sigma p-7288) at a concentration of 0.4 mg/ml in 0.05 M phosphate citrate buffer, pH 5.0 supplemented with 4 ul of 30% hydrogen peroxide (Aldrich) for 10 ml mixture. To detect the level of NST500 compounds that were bound to CL, parallel wells were incubated with streptavidin conugated to OPD (SA-OPD, Jackson Immunoresearch lab.), that specifically recognize the biotinylated NST 500 compounds. The resulting colour changes were recorded at 405 nm using a Bio Tek Elx800 Eliza reader.
# apoptotic HeLa cells [3] = test: Modified APTT test with apoptotic HeLa cells as pro-coagulant surface; assay type: cell-based
# Description: Apoptotic and control HeLa cells were prepared as described for the FACS analysis. Equal numbers of apoptotic or control non-treated cells (5×10^4) in a volume of […], were mixed with 100 μl of normal plasma, incubated for 1 min at 37° C. in a bath and then calcified by addition of 100 μl of 25 mM CaCl2, and clotting time was measured. Inhibition of the pro-coagulant activity of the apoptotic cells by NST500 compounds was tested following pre-incubation of apoptotic cells for 20 min. at room temperature with increased concentrations of the different NST 500 compounds.
# The results can be seen in FIG. 4B.
substance,measurement,setting,value
Myristate-KVSFFCKNKEKKC-K (SEQ ID NO:1) (biotin) [NST513],"binding intensity (FITC mean value), activated vs control non-treated platelets",activated platelets,20 times
same,increase in the percentage of platelets stained with FITC upon activation,activated platelets; activated (A23187) vs control platelets,6 fold
same,labeling of apoptotic HeLa cells,apoptotic HeLa cells [1],potent detector of apoptotic cells
same,labeling of control non-treated HeLa cells,apoptotic HeLa cells [1],did not exhibit significant labeling
same,EC50,"[2]; RVV clotting time, read-out: EC50 (effective dose of 50%)",3 to 5 µM
same,prolongation of clotting time (factor),"[2]; RVV test, normal plasma, 2.5–20 μM, control 40 seconds",3.75 and 3.5
same,displacement of plasma derived from SLE patients from cardiolipin,cardiolipin; 1 μM,did not exhibit displacement
same,displacement of plasma derived from SLE patients from cardiolipin,cardiolipin; 10 μM,almost complete displacement
same,"inhibition of binding of plasma derived from SLE patients to cardiolipin, dose response",cardiolipin; 1–10 μM,marked displacement of IgG
same,effect on clotting time of apoptotic cells,apoptotic HeLa cells [3]; 2.5–2.2 μM,marked and dose dependent inhibition of clotting time; also recorded: dose-dependent effect
same,increase of clotting time of apoptotic cells (factor),apoptotic HeLa cells [3]; 2.5–2.2 μM,3.2 times
same,clotting time of apoptotic cells,"apoptotic HeLa cells [3]; apoptotic cells alone 50 seconds, control cells 80 seconds",160 s
